Source: patent US12539292B2, “BRM targeting compounds and associated methods of use” (Arvinas Operations, Inc., priority 2018, dated 2026)
Where two headings read alike, the source gives them in different places.

Target: T1, BRM (Homo sapiens, UniProt P51531)
T1 construct: In-Cell Western Screen of BRM Degradation in SW1573 Cells; endogenous in cells; host or cells: SW1573
Assay: In-cell Western screen of BRM degradation in SW1573 cells (Dmax and DC50)
Type: cell-based
Settings: BRM degradation, SW1573 cells; for Dmax: read-out: Dmax (% degraded)
How it was run: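 After adhering overnight, cells received compound for 18-20 hours. They were then washed in cold DPBS, fixed with 4% PFA for 20 min and permeabilized for 30 min. Blocking and fluorescent secondary staining followed before imaging.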

T1 sequence (P51531 whole entry): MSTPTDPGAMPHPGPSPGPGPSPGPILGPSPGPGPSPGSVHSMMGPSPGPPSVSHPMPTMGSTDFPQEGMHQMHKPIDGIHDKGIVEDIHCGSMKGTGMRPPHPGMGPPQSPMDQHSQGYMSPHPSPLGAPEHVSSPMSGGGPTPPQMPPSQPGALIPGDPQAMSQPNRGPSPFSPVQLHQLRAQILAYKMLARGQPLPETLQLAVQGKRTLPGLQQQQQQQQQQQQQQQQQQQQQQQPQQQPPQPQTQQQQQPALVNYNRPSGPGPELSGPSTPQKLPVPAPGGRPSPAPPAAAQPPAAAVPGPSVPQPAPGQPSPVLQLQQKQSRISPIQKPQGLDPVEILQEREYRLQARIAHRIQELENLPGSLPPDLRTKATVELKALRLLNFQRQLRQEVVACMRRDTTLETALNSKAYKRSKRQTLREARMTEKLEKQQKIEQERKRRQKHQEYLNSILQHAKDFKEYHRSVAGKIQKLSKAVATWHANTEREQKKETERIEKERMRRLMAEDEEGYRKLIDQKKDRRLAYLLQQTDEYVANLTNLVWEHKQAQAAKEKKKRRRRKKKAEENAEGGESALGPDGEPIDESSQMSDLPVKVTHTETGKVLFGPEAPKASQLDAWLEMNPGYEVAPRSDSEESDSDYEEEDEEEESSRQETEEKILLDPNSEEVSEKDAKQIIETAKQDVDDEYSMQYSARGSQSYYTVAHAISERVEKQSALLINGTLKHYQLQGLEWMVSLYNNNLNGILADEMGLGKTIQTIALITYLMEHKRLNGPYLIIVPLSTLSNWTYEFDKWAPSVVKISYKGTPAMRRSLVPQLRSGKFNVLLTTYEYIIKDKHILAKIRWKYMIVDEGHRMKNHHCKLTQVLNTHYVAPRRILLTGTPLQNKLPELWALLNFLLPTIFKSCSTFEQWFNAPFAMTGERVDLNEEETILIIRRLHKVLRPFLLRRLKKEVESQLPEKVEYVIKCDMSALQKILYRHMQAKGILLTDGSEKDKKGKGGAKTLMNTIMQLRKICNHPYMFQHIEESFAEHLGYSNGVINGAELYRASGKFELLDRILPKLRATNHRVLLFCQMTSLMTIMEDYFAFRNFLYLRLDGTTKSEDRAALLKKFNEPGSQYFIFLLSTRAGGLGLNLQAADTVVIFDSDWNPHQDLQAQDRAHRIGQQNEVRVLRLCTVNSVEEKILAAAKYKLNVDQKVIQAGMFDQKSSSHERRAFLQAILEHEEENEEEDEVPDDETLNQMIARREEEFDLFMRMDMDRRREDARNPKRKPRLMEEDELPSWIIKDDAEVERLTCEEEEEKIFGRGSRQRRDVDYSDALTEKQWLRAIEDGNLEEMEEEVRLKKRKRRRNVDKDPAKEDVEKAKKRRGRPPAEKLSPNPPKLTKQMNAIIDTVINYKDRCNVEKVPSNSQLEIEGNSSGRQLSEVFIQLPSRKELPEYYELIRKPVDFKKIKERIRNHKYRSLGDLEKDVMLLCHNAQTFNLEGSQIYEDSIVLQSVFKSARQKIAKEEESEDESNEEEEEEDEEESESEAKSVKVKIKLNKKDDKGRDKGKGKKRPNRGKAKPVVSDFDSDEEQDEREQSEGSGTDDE

## Cc1ncsc1-c1ccc([C@H](C)NC(=O)[C@@H]2C[C@@H](O)CN2C(=O)C(c2cc(N3CCC(C(C)(C)N4CCC(O[C@H]5C[C@H](Oc6cc(N7C8CCC7CN(c7cc(-c9ccccc9O)nnc7N)C8)ccn6)C5)CC4)CC3)no2)C(C)C)cc1 (stereo partly drawn) [compound 692, (2S,4R)-1-(2-(3-(4-(2-(4-((1r,3r)-3-((4-(3-(3-amino-6-(2-hydroxyphenyl)pyridazin-4-yl)-3,8-diazabicyclo[3.2.1]octan-8-yl)pyridin-2-yl)oxy)cyclobutoxy)piperidin-1-yl)propan-2-yl)piperidin-1-yl)isoxazol-5-yl)-3-methylbutanoyl)-4-hydroxy-N-((S)-1-(4-(4-methylthiazol-5-yl)phenyl)ethyl)pyrrolidine-2-carboxamide]
read-out: DC50
  DC50: < 2.5 nM
  Dmax: > 75%

## Cc1ncsc1-c1ccc([C@H](C)NC(=O)[C@@H]2C[C@@H](O)CN2C(=O)[C@@H](c2cc(N3CCC(CN4CCC(O[C@H]5C[C@H](Oc6cc(N7CCN(c8cc(-c9ccccc9O)nnc8N)CC7)ccn6)C5)CC4)CC3)no2)C(C)C)cc1 [compound 693, (2S,4R)-1-((R)-2-(3-(4-((4-((1r,3r)-3-((4-(4-(3-amino-6-(2-hydroxyphenyl)pyridazin-4-yl)piperazin-1-yl)pyridin-2-yl)oxy)cyclobutoxy)piperidin-1-yl)methyl)piperidin-1-yl)isoxazol-5-yl)-3-methylbutanoyl)-4-hydroxy-N-((S)-1-(4-(4-methylthiazol-5-yl)phenyl)ethyl)pyrrolidine-2-carboxamide]
  DC50: < 2.5 nM

## Cc1ncsc1-c1ccc([C@H](C)NC(=O)[C@@H]2C[C@@H](O)CN2C(=O)[C@H](c2cc(N3CCC4(CC3)CN(CC3CCN(C[C@H]5C[C@H](Oc6cc(N7C8CCC7CN(c7cc(-c9ccccc9O)nnc7N)C8)ccn6)C5)CC3)C4)no2)C(C)C)cc1 [compound 694, (2S,4R)-1-((2S)-2-(3-(2-((1-(((1r,3r)-3-((4-(3-(3-amino-6-(2-hydroxyphenyl)pyridazin-4-yl)-3,8-diazabicyclo[3.2.1]octan-8-yl)pyridin-2-yl)oxy)cyclobutyl)methyl)piperidin-4-yl)methyl)-2,7-diazaspiro[3.5]nonan-7-yl)isoxazol-5-yl)-3-methylbutanoyl)-4-hydroxy-N-((S)-1-(4-(4-methylthiazol-5-yl)phenyl)ethyl)pyrrolidine-2-carboxamide]
read-out: DC50
  DC50: > 30 nM

## Cc1ncsc1-c1ccc([C@H](C)NC(=O)[C@@H]2C[C@@H](O)CN2C(=O)[C@@H](c2cc(N3CCC4(CC3)CN(CC3CCN(C[C@H]5C[C@H](Oc6cc(N7C8CCC7CN(c7cc(-c9ccccc9O)nnc7N)C8)ccn6)C5)CC3)C4)no2)C(C)C)cc1 [compound 695, (2S,4R)-1-((2R)-2-(3-(2-((1-(((1r,3r)-3-((4-(3-(3-amino-6-(2-hydroxyphenyl)pyridazin-4-yl)-3,8-diazabicyclo[3.2.1]octan-8-yl)pyridin-2-yl)oxy)cyclobutyl)methyl)piperidin-4-yl)methyl)-2,7-diazaspiro[3.5]nonan-7-yl)isoxazol-5-yl)-3-methylbutanoyl)-4-hydroxy-N-((S)-1-(4-(4-methylthiazol-5-yl)phenyl)ethyl)pyrrolidine-2-carboxamide]
read-out: DC50
  DC50: < 2.5 nM
  Dmax: > 75%

## Cc1ncsc1-c1ccc([C@H](C)NC(=O)[C@@H]2C[C@@H](O)CN2C(=O)[C@H](c2cc(N3CCC(CN4CCC(O[C@H]5C[C@H](Oc6cc(N7C8CCC7CN(c7cc(-c9ccccc9O)nnc7N)C8)ccn6)C5)CC4)CC3)no2)C(C)C)c(O)c1 [compound 696, (2S,4R)-1-((2S)-2-(3-(4-((4-((1r,3r)-3-((4-(3-(3-amino-6-(2-hydroxyphenyl)pyridazin-4-yl)-3,8-diazabicyclo[3.2.1]octan-8-yl)pyridin-2-yl)oxy)cyclobutoxy)piperidin-1-yl)methyl)piperidin-1-yl)isoxazol-5-y1)-3-methylbutanoyl)-4-hydroxy-N-((S)-1-(2-hydroxy-4-(4-methylthiazol-5-yl)phenyl)ethyl)pyrrolidine-2-carboxamide]
read-out: DC50
  DC50: > 30 nM

## Cc1ncsc1-c1ccc([C@H](C)NC(=O)[C@@H]2C[C@@H](O)CN2C(=O)[C@@H](c2cc(N3CCC(CN4CCC(O[C@H]5C[C@H](C#Cc6cc(N7C8CCC7CN(c7cc(-c9ccccc9O)nnc7N)C8)ccn6)C5)CC4)CC3)no2)C(C)C)cc1 [compound 699, (2S,4R)-1-((2R)-2-(3-(4-((4-((1r,3r)-3-((4-(3-(3-amino-6-(2-hydroxyphenyl)pyridazin-4-yl)-3,8-diazabicyclo[3.2.1]octan-8-yl)pyridin-2-yl)ethynyl)cyclobutoxy)piperidin-1-yl)methyl)piperidin-1-yl)isoxazol-5-yl)-3-methylbutanoyl)-4-hydroxy-N-((S)-1-(4-(4-methylthiazol-5-yl)phenyl)ethyl)pyrrolidine-2-carboxamide]
read-out: DC50
  DC50: < 2.5 nM
  Dmax: > 75%

## Cc1ncsc1-c1ccc([C@H](C)NC(=O)[C@@H]2C[C@@H](O)CN2C(=O)[C@H](c2cc(N3CCC(CN4CCC(O[C@H]5C[C@H](Oc6cc(N7C8CCC7CN(c7cc(-c9ccccc9O)nnc7N)C8)ccn6)C5)CC4)CC3)no2)C(C)C)cc1O [compound 700, (2S,4R)-1-((2S)-2-(3-(4-((4-((1r,3r)-3-((4-(3-(3-amino-6-(2-hydroxyphenyl)pyridazin-4-yl)-3,8-diazabicyclo[3.2.1]octan-8-yl)pyridin-2-yl)oxy)cyclobutoxy)piperidin-1-yl)methyl)piperidin-1-yl)isoxazol-5-yl)-3-methylbutanoyl)-4-hydroxy-N-((S)-1-(3-hydroxy-4-(4-methylthiazol-5-yl)phenyl)ethyl)pyrrolidine-2-carboxamide]
read-out: DC50
  DC50: > 30 nM

## Cc1ncsc1-c1ccc(C(CCCP(=O)(O)O)NC(=O)[C@@H]2C[C@@H](O)CN2C(=O)[C@H](c2cc(OCCN3CCC(O[C@H]4C[C@H](Oc5cc(N6C7CCC6CN(c6cc(-c8ccccc8O)nnc6N)C7)ccn5)C4)CC3)no2)C(C)C)cc1 (stereo partly drawn) [compound 701, (4-((2S,4R)-1-((2S)-2-(3-(2-(4-((1r,3S)-3-((4-(3-(3-amino-6-(2-hydroxyphenyl)pyridazin-4-yl)-3,8-diazabicyclo[3.2.1]octan-8-yl)pyridin-2-yl)oxy)cyclobutoxy)piperidin-1-yl)ethoxy)isoxazol-5-yl)-3-methylbutanoyl)-4-hydroxypyrrolidine-2-carboxamido)-4-(4-(4-methylthiazol-5-yl)phenyl)butyl)phosphonic acid]
  DC50: > 30 nM

## Cc1ncsc1-c1ccc(C(CCCP(=O)(O)O)NC(=O)[C@@H]2C[C@@H](O)CN2C(=O)[C@@H](c2cc(OCCN3CCC(O[C@H]4C[C@H](Oc5cc(N6C7CCC6CN(c6cc(-c8ccccc8O)nnc6N)C7)ccn5)C4)CC3)no2)C(C)C)cc1 (stereo partly drawn) [compound 702, (4-((2S,4R)-1-((2R)-2-(3-(2-(4-((1r,3R)-3-((4-(3-(3-amino-6-(2-hydroxyphenyl)pyridazin-4-yl)-3,8-diazabicyclo[3.2.1]octan-8-yl)pyridin-2-yl)oxy)cyclobutoxy)piperidin-1-yl)ethoxy)isoxazol-5-yl)-3-methylbutanoyl)-4-hydroxypyrrolidine-2-carboxamido)-4-(4-(4-methylthiazol-5-yl)phenyl)butyl)phosphonic acid]
  DC50: > 30 nM

## Cc1ncsc1-c1ccc([C@H](C)NC(=O)[C@@H]2C[C@@H](O)CN2C(=O)[C@H](c2cc(N3CCN(C(C)[C@H]4C[C@H](Oc5cc(N6C7CCC6CN(c6cc(-c8ccccc8O)nnc6N)C7)ccn5)C4)CC3)no2)C(C)C)cc1 (stereo partly drawn) [compound 703, (2S,4R)-1-((2S)-2-(3-(4-((1S)-1-((1r,3S)-3-((4-(3-(3-amino-6-(2-hydroxyphenyl)pyridazin-4-yl)-3,8-diazabicyclo[3.2.1]octan-8-yl)pyridin-2-yl)oxy)cyclobutyl)ethyl)piperazin-1-yl)isoxazol-5-yl)-3-methylbutanoyl)-4-hydroxy-N-((S)-1-(4-(4-methylthiazol-5-yl)phenyl)ethyl)pyrrolidine-2-carboxamide]
read-out: DC50
  DC50: 2.5 to 10 nM
  Dmax: > 75%

## Cc1ncsc1-c1ccc([C@H](C)NC(=O)[C@@H]2C[C@@H](O)CN2C(=O)[C@@H](c2cc(N3CCN(C(C)[C@H]4C[C@H](Oc5cc(N6C7CCC6CN(c6cc(-c8ccccc8O)nnc6N)C7)ccn5)C4)CC3)no2)C(C)C)cc1 (stereo partly drawn) [compound 704, (2S,4R)-1-((2R)-2-(3-(4-((1S)-1-((1r,3S)-3-((4-(3-(3-amino-6-(2-hydroxyphenyl)pyridazin-4-yl)-3,8-diazabicyclo[3.2.1]octan-8-yl)pyridin-2-yl)oxy)cyclobutyl)ethyl)piperazin-1-yl)isoxazol-5-yl)-3-methylbutanoyl)-4-hydroxy-N-((S)-1-(4-(4-methylthiazol-5-yl)phenyl)ethyl)pyrrolidine-2-carboxamide]
read-out: DC50
  DC50: < 2.5 nM
  Dmax: > 75%

## Cc1ncsc1-c1ccc([C@H](C)NC(=O)[C@@H]2C[C@@H](O)CN2C(=O)[C@@H](c2cc(N3CCC(CN4CCN(C[C@H]5C[C@H](Oc6cc(N7C8CCC7CN(c7cc(-c9ccccc9O)nnc7N)C8)ccn6)C5)C(C)C4C)CC3)no2)C(C)C)cc1 (stereo partly drawn) [compound 705, (2S,4R)-1-((2R)-2-(3-(4-((4-(((1r,3r)-3-((4-(3-(3-amino-6-(2-hydroxyphenyl)pyridazin-4-yl)-3,8-diazabicyclo[3.2.1]octan-8-yl)pyridin-2-yl)oxy)cyclobutyl)methyl)-2,3-dimethylpiperazin-1-yl)methyl)piperidin-1-yl)isoxazol-5-yl)-3-methylbutanoyl)-4-hydroxy-N-((S)-1-(4-(4-methylthiazol-5-yl)phenyl)ethyl)pyrrolidine-2-carboxamide]
read-out: DC50
  DC50: < 2.5 nM
  Dmax: > 75%
